The text below walks through data of PubChem BioAssay (NCI).

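Cells were grown in 96-well plates and exposed to each compound for 48 hours at five concentrations; endpoints were interpolated linearly between bracketing concentrations, or set to the highest concentration if not reached. TGI: concentration producing complete growth inhibition.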

Assay in all cases: growth of human tumour cells (NCI), 48 h
Test [1] deals with SK-MEL-28 melanoma.
In test [2] the test system is SW-620 colon.
Test [3] relates to PC-3 prostate.
The test system of test [4] is UO-31 renal.
The subject of test [5] is RXF 393 renal.
Test [6] deals with NCI/ADR-RES ovarian.
For test [7], the system named is K-562 leukemia.
Test [8] relates to EKVX NSCLC.
Test [9] relates to RPMI-8226 leukemia.
For test [10], the system named is 786-0 renal.
The subject of test [11] is NCI-H226 lung.
Test [12] concerns MALME-3M melanoma.
The test system of test [13] is OVCAR-3 ovarian.

For the compound `CN1CCN(c2ccc3c(c2)NCC(=O)N3)CC1`, the TGI in test [1], in [2], in test [3], in test [4], in test [5] and in [6] was more than 100 µM each time. In addition, the TGI in [7], in test [8], in test [9], in [10], in test [11] and in [12] was more than 100 µM throughout. Moreover, the TGI in test [13] was more than 100 µM.

As to `CCOC(=O)Cn1nnc2ccc(Nc3nc4ccccc4nc3-c3ccccc3)cc21`, the TGI in test [1] was more than 100 µM; in test [2], more than 100 µM; in test [3], more than 100 µM; in test [4], 14.5 µM; in test [5] it was more than 100 µM; in [6], more than 100 µM. Further, the TGI in test [7], in [8], in test [9], in [10], in [11] and in test [12] was more than 100 µM throughout. The same compound returned a TGI in [13] of more than 100 µM.
